Legend:
heart muscle = experiment: myocardial (heart) perfusion in canines, electromagnetic flow meter, sublingual administration; format: in vivo; conditions: for % Increase in Heart Perfusion / Half-life duration (of heart perfusion increase): canines
Source text: The ability of the compound to assist in the perfusion action of the heart muscle can be conveniently observed in recognized pharmacological models. For example, the myocardial perfusion in canines can be observed utilizing an electromagnetic flow meter. Upon sublingual administration to canines, the following pharmacological manifestations are, for example, observed.

[1] = blood pressure decrease in canines upon sublingual administration; format: in vivo; conditions: for Blood Pressure Decrease (%): canines
stability towards light = format: physicochemical; conditions: compared with previously known 1,4-dihydropyridines
coronary perfusion = experiment: coronary activity / effect on coronary perfusion (general statement); format: in vivo

Which results are given for `COC(=O)C1=C(C)NC(C)=C(C(=O)OCC(C)C)C1c1ccccc1[N+](=O)[O-]` (stereo not shown) [the compound, isobutyl methyl 1,4-dihydro-2,6-dimethyl-4-(2-nitrophenyl)-3,5-pyridinedicarboxylate]?
% Increase in Heart Perfusion (heart muscle; 0.003 mg/kg sublingual): 23%; Half-life duration (of heart perfusion increase) (heart muscle; 0.003 mg/kg sublingual): 1.67 h; % Increase in Heart Perfusion (heart muscle; 0.01 mg/kg sublingual): 46%; Half-life duration (of heart perfusion increase) (heart muscle; 0.01 mg/kg sublingual): 2.22 h; % Increase in Heart Perfusion (heart muscle; 0.1 mg/kg sublingual): 142%; Half-life duration (of heart perfusion increase) (heart muscle; 0.1 mg/kg sublingual): 3.07 h; increase of perfusion of the heart muscle, dose dependence (in words) (heart muscle; sublingual administration): increases the perfusion of the heart muscle and that this action is a function of dose; onset of action after sublingual administration (heart muscle; sublingual administration): a few minutes after sublingual administration; total duration of action on heart muscle perfusion (heart muscle; sublingual administration, depending upon the dose): 2 to 6 h; Blood Pressure Decrease (%) ([1]; 0.003 mg/kg sublingual): .phi.; Blood Pressure Decrease (%) ([1]; 0.01 mg/kg sublingual): 5%; Blood Pressure Decrease (%) ([1]; 0.1 mg/kg sublingual): 13%; lowering of blood pressure (in words) ([1]; sublingual administration): slight and equally long lasting lowering of blood pressure; stability towards light (stability towards light): considerably greater stability towards light than previously known 1,4-dihydropyridines; coronary activity, magnitude and length of action (coronary perfusion; compared with any 1,4-dihydropyridine presently known): significantly greater than any 1,4-dihydropyridine presently known; effect on coronary perfusion (in words) (coronary perfusion; in vivo): powerful and long acting effect on coronary perfusion

Source: US4154839A, “2,6-Dimethyl -3-carboxymethoxy-4-(2-nitrophenyl)-5-carbisobutoxy-1,4-dihydropyridine” (priority 1975, dated 1979)
